Data: patent US9278932B1, “Process for preparation of 2-chloro-N-(4-chloro-3-pyridin-2-ylphenyl)-4-methylsulfonylbenzamide solid forms” (SHILPA MEDICARE LIMITED, priority 2013, dated 2016)

Tests used:
[1] = crystalline free base; cited from earlier work
[2] = storage and handling stability of the solid form; format: physicochemical

Compound | solubility [1] | stability on handling and storage (morphology and physicochemical characteristics) ([2]; solid crystalline form, stored for longer time) | time stable to handle and store without any significant or measurable change in morphology and physicochemical characteristics ([2]; solid crystalline material after drying, storage)
CS(=O)(=O)c1ccc(C(=O)Nc2ccc(Cl)c(-c3ccccn3)c2)c(Cl)c1 [Vismodegib] | pH dependent solubility |  | 
CS(=O)(=O)c1ccc(C(=O)Nc2ccc(Cl)c(-c3ccccn3)c2)c(Cl)c1 [Form-SV, 2-Chloro-N-(4-chloro-3-pyridin-2-ylphenyl)-4-methylsulfonylbenzamide] |  | quite stable | more than 6 months
